Data taken from the supplement of paper PMC10307832.

How the values were obtained:
Assay in all cases: relative viability (nuclei count vs DMSO), 5 days (fraction); higher = more cells survive
PAC-1 + Vorinostat = compound: C=CCc1cccc(/C=N/NC(=O)CN2CCN(Cc3ccccc3)CC2)c1O [PAC-1] + O=C(CCCCCCC(=O)Nc1ccccc1)NO [Vorinostat] (partner 1 µM)
In short: (§1)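 Lung cancer cell lines in 1536-well plates were dosed by pin tool the day after seeding, either with one drug alone or with a fixed anchor-drug dose plus five library-drug doses (not always all listed) in √10 steps. After 5 days, cells were fixed and their nuclei stained in one step (final 0.05% Triton X-100, 1% formaldehyde, 1 ug/ml Hoechst), then counted on 4× images. Relative viability is the nuclei count in treated wells divided by that in vehicle wells. Values are medians of duplicate plates.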

BMX-IN-1 + Palbociclib = compound: C=CC(=O)Nc1cc(-n2c(=O)ccc3cnc4ccc(-c5ccc(NS(C)(=O)=O)cc5)cc4c32)ccc1C [BMX-IN-1] + CC(=O)c1c(C)c2cnc(Nc3ccc(N4CCNCC4)cn3)nc2n(C2CCCC2)c1=O [Palbociclib] (partner 0.5 µM)
In short: as §1

BMX-IN-1 + Vorinostat = compound: C=CC(=O)Nc1cc(-n2c(=O)ccc3cnc4ccc(-c5ccc(NS(C)(=O)=O)cc5)cc4c32)ccc1C [BMX-IN-1] + O=C(CCCCCCC(=O)Nc1ccccc1)NO [Vorinostat] (partner 1 µM)
In short: as §1

PAC-1 + AZD7762 = compound: C=CCc1cccc(/C=N/NC(=O)CN2CCN(Cc3ccccc3)CC2)c1O [PAC-1] + NC(=O)Nc1cc(-c2cccc(F)c2)sc1C(=O)N[C@H]1CCCNC1 [AZD7762] (partner 0.2 µM)
In short: as §1

BMX-IN-1 + Navitoclax = compound: C=CC(=O)Nc1cc(-n2c(=O)ccc3cnc4ccc(-c5ccc(NS(C)(=O)=O)cc5)cc4c32)ccc1C [BMX-IN-1] + CC1(C)CCC(c2ccc(Cl)cc2)=C(CN2CCN(c3ccc(C(=O)NS(=O)(=O)c4ccc(N[C@H](CCN5CCOCC5)CSc5ccccc5)c(S(=O)(=O)C(F)(F)F)c4)cc3)CC2)C1 [Navitoclax] (partner 0.5 µM)
In short: as §1

Row | Cell Line | relative viability (PAC-1 + Vorinostat; first compound 0.02 µM) | relative viability (PAC-1 + Vorinostat; first compound 0.06325 µM) | relative viability (PAC-1 + Vorinostat; first compound 0.2 µM) | relative viability (PAC-1 + Vorinostat; first compound 2 µM) | relative viability (BMX-IN-1 + Palbociclib; first compound 0.02 µM) | relative viability (BMX-IN-1 + Palbociclib; first compound 0.2 µM) | relative viability (BMX-IN-1 + Palbociclib; first compound 0.6325 µM) | relative viability (BMX-IN-1 + Palbociclib; first compound 2 µM) | relative viability (BMX-IN-1 + Vorinostat; first compound 0.02 µM) | relative viability (BMX-IN-1 + Vorinostat; first compound 0.2 µM) | relative viability (BMX-IN-1 + Vorinostat; first compound 0.6325 µM) | relative viability (BMX-IN-1 + Vorinostat; first compound 2 µM) | relative viability (PAC-1 + AZD7762; first compound 0.02 µM) | relative viability (PAC-1 + AZD7762; first compound 0.06325 µM) | relative viability (PAC-1 + AZD7762; first compound 0.2 µM) | relative viability (PAC-1 + AZD7762; first compound 2 µM) | relative viability (BMX-IN-1 + Navitoclax; first compound 0.02 µM) | relative viability (BMX-IN-1 + Navitoclax; first compound 0.2 µM) | relative viability (BMX-IN-1 + Navitoclax; first compound 0.6325 µM) | relative viability (BMX-IN-1 + Navitoclax; first compound 2 µM)
1 | NCI-H358 | 0.645 | 0.665 | 0.706 | 0.674 | 0.129 | 0.138 | 0.147 | 0.122 | 0.816 | 0.811 | 0.788 | 0.652 | 0.51 | 0.507 | 0.55 | 0.402 |  |  |  | 
2 | NCI-H1792 |  |  |  |  |  | 0.64 | 1.26 | 0.613 |  |  |  |  | 0.673 | 0.672 | 0.562 | 0.679 | 0.559 | 0.632 | 0.49 | 0.724
3 | NCI-H2009 | 0.669 | 0.685 | 0.732 | 0.741 | 0.182 | 0.212 | 0.207 | 0.254 | 0.782 | 0.798 | 0.746 | 0.839 |  |  |  |  | 1.23 | 1.31 | 1.19 | 1.24
4 | SW 1573 | 0.693 | 0.649 | 0.571 | 0.861 | 0.411 | 0.413 | 0.391 | 0.334 | 0.845 | 0.98 | 0.709 | 0.0976 |  |  |  |  | 1.22 | 1.39 | 1.21 | 0.808
5 | SW 900 |  | 0.41 | 0.494 | 0.553 | 0.467 | 0.676 | 0.53 | 0.626 | 0.659 | 0.548 | 0.678 | 0.47 |  | 0.744 | 0.637 | 0.678 |  |  |  | 
6 | NCI-H1299 |  |  |  |  |  |  |  |  |  |  |  |  |  |  |  |  | 1.08 | 1.05 | 1.05 | 1.06
7 | EBC-1 |  |  |  |  |  |  |  |  |  |  |  |  |  |  |  |  | 0.425 | 0.341 | 0.434 | 0.329
8 | IA-LM | 1.15 | 0.915 | 0.879 | 0.961 |  |  |  |  | 0.797 | 0.807 | 1.03 | 0.722 |  |  |  |  | 0.937 | 0.796 | 0.807 | 0.722
9 | NCI-H650 | 0.494 | 0.36 | 0.442 | 0.395 | 0.293 | 0.332 | 0.331 | 0.353 | 0.475 | 0.52 | 0.48 | 0.438 | 0.945 | 0.943 | 1.02 | 0.951 |  |  |  | 
10 | NCI-H520 | 0.57 | 0.722 | 0.687 | 0.678 | 0.254 | 0.218 | 0.218 | 0.219 | 0.8 | 0.718 | 0.666 | 0.696 |  |  |  |  | 1.35 | 1.4 | 1.16 | 1.03
11 | COR-L23 | 0.415 | 0.429 |  | 0.364 | 0.306 | 0.293 | 0.384 | 0.311 | 0.448 | 0.524 | 0.635 | 0.421 |  |  |  |  | 1.52 | 1.46 | 1.14 | 1.02
12 | A549 |  |  |  |  |  |  |  |  |  |  |  |  |  |  |  |  | 1.5 | 1.44 | 1.37 | 1.17
13 | SK-LU-1 | 0.742 | 0.846 | 0.757 | 0.855 | 0.323 | 0.399 | 0.385 | 0.335 | 0.719 | 0.969 | 0.797 | 0.69 |  |  |  |  | 1 | 0.69 | 0.789 | 1.02
